Drawing on BindingDB's records for PubMed 8169832 (University of Pennsylvania, 1994), this text covers Ki for eight compounds.

Chain of 5-hydroxytryptamine receptor 6 (Q9R1C8 whole entry): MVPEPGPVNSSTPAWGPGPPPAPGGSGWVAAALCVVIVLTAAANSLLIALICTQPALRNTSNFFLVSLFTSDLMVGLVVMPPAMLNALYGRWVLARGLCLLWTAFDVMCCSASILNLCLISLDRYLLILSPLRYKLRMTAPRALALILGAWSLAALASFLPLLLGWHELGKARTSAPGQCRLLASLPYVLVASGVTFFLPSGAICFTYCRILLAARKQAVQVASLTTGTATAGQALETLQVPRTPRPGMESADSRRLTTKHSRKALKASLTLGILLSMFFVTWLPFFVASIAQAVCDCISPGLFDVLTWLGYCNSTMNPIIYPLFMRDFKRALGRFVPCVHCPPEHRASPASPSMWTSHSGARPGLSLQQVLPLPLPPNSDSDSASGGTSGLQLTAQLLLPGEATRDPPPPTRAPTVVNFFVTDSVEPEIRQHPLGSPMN

This assay concerns the target 5-hydroxytryptamine receptor 6 (Mus musculus, UniProt Q9R1C8).
Regarding `Cc1[nH]c2ccc(O)cc2c1CCN`, the Ki was 0.398 µM.
Next, `O=C(c1ccc(F)cc1)C1CCN(CCn2c(=O)[nH]c3ccccc3c2=O)CC1` [3-(2-{4-[(4-fluorophenyl)carbonyl]piperidin-1-yl}ethyl)-1,2,3,4-tetrahydroquinazoline-2,4-dione]: 1 µM; `Cn1cc(CCN)c2cc(O)ccc21` [5-HT,omega-N-Me]: 2 µM; `CN1CCN(C2=c3ccccc3=Nc3ccc(Cl)cc3N2)CC1` [6-chloro-10-(4-methylpiperazin-1-yl)-2,9-diazatricyclo[9.4.0.0^{3,8}]pentadeca-1,3(8),4,6,10,12,14-heptaene]: 0.0316 µM.
Turning to `CN1CCN2c3ccccc3Cc3ccccc3[C@H]2C1` [MIANSERIN (+)], the affinity, expressed as Ki, was 0.0199 µM.
Next, `CN1CCc2cc(Cl)c(O)cc2[C@@H](c2ccccc2)C1` [SCH 23390,R(+)]: 2.51 µM; `NCCc1c[nH]c2ccc(O)cc12` [[3H]-5-HT]: 0.0398 µM; `CSc1ccc2c(c1)C(N1CCN(C)CC1)Cc1ccccc1S2` (stereo not drawn) [methanesulfonic acid;1-methyl-4-(3-methylsulfanyl-5,6-dihydrobenzo[b][1]benzothiepin-5-yl)piperazine]: 0.00199 µM.

The Ki is the equilibrium dissociation constant of an inhibitor or competing ligand from its target. Low values mean tighter binding, high ones weaker binding.
